Patent US10322105B2, “Pharmaceutical composition containing Ginkgolide B and ADP receptor antagonist, preparation method thereof and use thereof” (CHENGDU BAIYU PHARMACEUTICAL CO., LTD, priority 2014, dated 2019)
Structures can show the parent of a compound that is named as a salt. Where two headings read alike, the source gives them in different places.

Legend:
platelets = assay: Scanning electron microscopy study of platelet morphology after addition of PAF; type: in vivo, Japanese large-ear white rabbits; conditions: rabbits, 5.0 mg/kg once daily for 7 days; PRP after addition of PAF, 100 platelets observed
Method: (§1) All groups were administered with a clinically used route and dosage for 7 days continuously.
The 100 μL of PRP was placed in a silicification EP tube, and 1 μL of PAF was added to induce aggregation of platelets for 15 minutes, the PRP was then placed on a copper mesh sample support laid with a Formar membrane, incubating at 37° C. for 10 min, washing with ultrapure water, fixing with 3% glutaraldehyde for 5 minutes, rewashing with ultrapure water. After the sample on the copper mesh was naturally dried, a layer of 20 nm gold film was plated on the surface of the sample, and the cell morphology was studied with an electron microscope S-3000N. 100 of platelets were observed and calculated the ratio of each type of platelet. The types of platelet under the electron microscope includes: (1) Circle type appears circular or oval, with small size, compact center, large core and low and narrow transparent periphery zone. (2) Tree like type has a single or a plurality of elongated or sheet-shaped sometimes branched foot protrudes from the dense center. (3) Flat type has a dense core in the center and a wide transparent peripheral zone which has a smooth periphery or small bulges. (4) Aggregated-type is usually composed of several to dozens of platelets, with different sizes of the aggregates, wherein the platelets are mutually connected, some of the platelets are integrally fused into a whole, and the foot processes of the peripheral part are prominent.

[1] = test system: platelet aggregation induced by PAF; assay: Platelet aggregation rate induced by PAF in platelet-rich plasma of rabbits after 7 days of administration; type: in vivo, Japanese large-ear white rabbits; conditions: 5.0 mg/kg once daily for 7 days; for Platelet aggregation rate 1 min / Platelet aggregation rate 5 min / Maximum platelet aggregation rate (MAX): PRP, x ± s, n = 8; for Platelet aggregation rate 1 min: 1 min after addition of 10 μL PAF; for Platelet aggregation rate 5 min: 5 min after addition of 10 μL PAF; for Maximum platelet aggregation rate (MAX): after addition of PAF; for inhibition at 5 mg/kg: Oryctolagus cuniculus, Platelet, 168 h
Method: as §1
After 7 days of administration, 10.5 ml of blood was taken from the heart of each animal, wherein 1.5 ml of […] was used for taking serum and the rest 9 ml of […] was subjected to 3.8% sodium citrate at 1:9 for anticoagulation, centrifuging for 10 minutes at 800 r/min, and taking the supernatant to obtain platelet-rich plasma (PRP), wherein 100 μl of the PRP was taken for electron microscope examination, and the rest of the PRP was used for detecting of the platelet aggregation rate; the remaining portion was centrifuged for 15 min at a speed of 3000 r/min, and platelet-depleted plasma (PPP) was obtained. PPP was used to adjust the number of platelet in PRP, to be at 360×10^9/L. The platelet aggregation rate was recorded at 1 min, 5 min of addition of 10 μL of PAF inducer and the maximum platelet aggregation rate was recorded after the addition of PAR

[2] = in vivo; cited from earlier work
[3] = cited from earlier work
[4] = PLATO study, cited from earlier work
[5] = PAF-induced, relative to Saline group

Row | SMILES | Types of morphology: Circle (platelets) [%] | Types of morphology: Flat (platelets) [%] | Types of morphology: Tree like (platelets) [%] | Platelet aggregation rate 1 min [1] | Platelet aggregation rate 5 min [1] | Maximum platelet aggregation rate (MAX) [1] | inhibition at 5 mg/kg [1, 5] [%] | Platelet aggregation inhibition rate [1, 5] [%] | Occurrence rate of common side effects (digestive tract symptoms and rash) [2] | Severe bleeding rate ([3]; Clopidogrel-treated patients) [%] | Common side effects: abdominal pain ([3]; clinical trial (CAPRIE)) [%] | Common side effects: diarrhea ([3]; clinical trial (CAPRIE)) [%] | Common side effects: digestive tract hemorrhage ([3]; clinical trial (CAPRIE)) [%] | Common side effects: dyspepsia ([3]; clinical trial (CAPRIE)) [%] | Common side effects: intracranial hemorrhage ([3]; clinical trial (CAPRIE)) [%] | Common side effects: rash ([3]; clinical trial (CAPRIE)) [%] | Common side effects: serious granulocyte reduction ([3]; clinical trial (CAPRIE)) [%] | Occurrence rate of interventricular interval ([4]; acute stage) [%] | Occurrence rate of interventricular interval ([4]; after one month) [%]
1 | CC(=O)Oc1cc2c(s1)CCN(C(C(=O)C1CC1)c1ccccc1F)C2 (centres unmarked) [Prasugrel] | 9.9 ± 7.6 | 25.4 ± 8.7 | 19.6 ± 6.8 | 37.14 ± 8.59 | 55.56 ± 7.53 | 63.12 ± 5.47 | 10.1 |  |  |  |  |  |  |  |  |  |  |  | 
2 | CC1C(=O)OC2C(O)C34C5CC(C(C)(C)C)C36C(OC(=O)C6O)OC4(C(=O)O5)C12O (centres unmarked) [Ginkgolide B] | 31.6 ± 6.4 | 46.1 ± 8.3 | 15.8 ± 6.8 | 21.36 ± 4.15 | 33.54 ± 5.48 |  |  | 44.66 |  |  |  |  |  |  |  |  |  |  | 
3 | Clc1ccccc1CN1CCc2sccc2C1 [Ticlopidine] |  |  |  |  |  |  |  |  | about 10% |  |  |  |  |  |  |  |  |  | 
4 | COC(=O)[C@H](c1ccccc1Cl)N1CCc2sccc2C1 [Clopidogrel, (S)-alpha-(2-chlorphenyl)-6,7-dihydrothieno [3,2-c]pyridine-5-(4H)acetate hydrogen sulfate] | 7.7 ± 7.8 | 30.7 ± 13.6 | 24.6 ± 8.8 | 35.27 ± 6.08 | 53.73 ± 8.46 | 60.96 ± 9.50 | 13.2 |  |  | 1.4 | 6 | 5 | 2 | 5 | 0.4 | 4 | 0.04 |  | 
5 | CCCSc1nc(N[C@@H]2C[C@H]2c2ccc(F)c(F)c2)c2nnn([C@@H]3C[C@H](OCCO)[C@@H](O)[C@H]3O)c2n1 [Ticagrelor, (1S,2S,3R,5S)-3-[7-[(1R,2S)-2-(3,4-Difluorophenyl)cycloprolamino]-5-(propylsulfanyl)-3H-[1,2,3]triazolo [4,5-d]pyrimidin-3-yl]-5-(2-hydroxyethoxy) cyclopenane-1,2-diol] | 6.2 ± 7.5 | 33.6 ± 10.7 | 21.4 ± 9.4 | 34.21 ± 5.75 | 60.50 ± 9.24 | 67.74 ± 9.36 | 3.53 |  |  |  |  |  |  |  |  |  |  | 60 | 2.2
